Columns and labels:
[1] = tested on: B. cereus ATCC 11778; assay: MIC, NCCLS broth microdilution, B. cereus; assay type: cell-based, Bacillus cereus
Source text: (§1) It vitro biological activity data were collected for a variety of microorganisms, including Bacillus cereus (ATCC 11778), Staphylococcus aureus (ATCC 33591; ATCC 27660, a methicillin resistant strain (MRSA); ATCC 13709, a methicillin sensitive strain (MSSA)), Enterococcus faecalis (ATCC 29212), and Streptococcus pneumoniae (ATCC 49619). Additionally, antifungal activity data were collected for Candida albicans (ATCC 38247).
(§2) Compounds according to this invention were screened for their in vitro activities against selected species of bacteria and fungi. The minimal inhibition concentration (MIC) of these compounds was determined using the National Committee for Clinical Laboratory Standards (NCCLS) broth microdilution assay in microtiter plates, as set forth in: (1) the guidelines of the National Committee for Clinical Laboratory Standards (NCCLS) Document M7-A4 (NCCLS, 1997); (2) the guidelines of the National Committee for Clinical Laboratory Standards (NCCLS) Document M11-A4 (NCCLS, 1997); and (3) the guidelines and reference method of the National Committee for Clinical Laboratory Standards (NCCLS) Document M27-T (NCCLS, 1995). For antifungal assays, the method recommended in Murray, P R., 1995 Manual of Clinical Microbiology (ASM Press, Washington, D.C.), was employed.

[2] = tested on: C. albicans ATCC 38247; assay: MIC, antifungal assay, C. albicans; assay type: cell-based, Candida albicans
Source text: as §1, §2

[3] = tested on: E. faecalis ATCC 29212; assay: MIC, NCCLS broth microdilution, E. faecalis; assay type: cell-based, Enterococcus faecalis
Source text: as §1, §2

[4] = tested on: S. aureus ATCC 13709; assay: MIC, NCCLS broth microdilution, S. aureus MSSA; assay type: cell-based, Staphylococcus aureus; settings: S. aureus ATCC 13709, methicillin sensitive strain (MSSA)
Source text: as §1, §2

[5] = tested on: S. aureus ATCC 27660; assay: MIC, NCCLS broth microdilution, S. aureus MRSA; assay type: cell-based, Staphylococcus aureus; settings: S. aureus ATCC 27660, methicillin resistant strain (MRSA)
Source text: as §1, §2

[6] = tested on: S. aureus ATCC 33591; assay: MIC, NCCLS broth microdilution, S. aureus ATCC 33591; assay type: cell-based, Staphylococcus aureus
Source text: as §1, §2

[7] = tested on: S. pneumoniae ATCC 49619; assay: MIC, NCCLS broth microdilution, S. pneumoniae; assay type: cell-based, Streptococcus pneumoniae
Source text: as §1, §2

SMILES	Minimum Inhibitory Concentration (MIC), organism A [1]	Minimum Inhibitory Concentration (MIC), organism B [2]	Minimum Inhibitory Concentration (MIC), organism C [3]	Minimum Inhibitory Concentration (MIC), organism D [4]	Minimum Inhibitory Concentration (MIC), organism E [5]	Minimum Inhibitory Concentration (MIC), organism F [6]	Minimum Inhibitory Concentration (MIC), organism G [7]
CN(C)CCCn1cc(NC(=O)c2ccc(F)cc2F)cc1C(=O)Nc1cc(-c2nc3ncncc3[nH]2)n(C)c1 [Compound A-19]	+ (12 ≦ MIC ≦ 32 μg/mL)	>32 µg/mL	++ (4 < MIC < 12 μg/mL)	+ (12 ≦ MIC ≦ 32 μg/mL)	+ (12 ≦ MIC ≦ 32 μg/mL)	+ (12 ≦ MIC ≦ 32 μg/mL)	+++ (MIC ≦ 4 μg/mL)
CN(C)CCCn1cc(NC(=O)c2sccc2Cl)cc1C(=O)Nc1cc(-c2nc3ncncc3[nH]2)n(C)c1 [Compound A-63]	>32 µg/mL	>32 µg/mL	+ (12 ≦ MIC ≦ 32 μg/mL)	+ (12 ≦ MIC ≦ 32 μg/mL)	+ (12 ≦ MIC ≦ 32 μg/mL)	+ (12 ≦ MIC ≦ 32 μg/mL)	+++ (MIC ≦ 4 μg/mL)
CN(C)CCCn1cc(NC(=O)c2ccc(Cl)cc2F)cc1C(=O)Nc1cc(-c2nc3cncnc3[nH]2)n(C)c1 [Compound A-46]	+++ (MIC ≦ 4 μg/mL)	>32 µg/mL	+++ (MIC ≦ 4 μg/mL)	+++ (MIC ≦ 4 μg/mL)	+++ (MIC ≦ 4 μg/mL)	+++ (MIC ≦ 4 μg/mL)	+++ (MIC ≦ 4 μg/mL)
CC1CCN(CCCn2cc(NC(=O)c3ccc(Cl)cc3F)cc2C(=O)Nc2cc(-c3nc4ccccc4[nH]3)n(C)c2)CC1 [Compound A-38]	+++ (MIC ≦ 4 μg/mL)	+ (12 ≦ MIC ≦ 32 μg/mL)	+++ (MIC ≦ 4 μg/mL)	+++ (MIC ≦ 4 μg/mL)	+++ (MIC ≦ 4 μg/mL)	+++ (MIC ≦ 4 μg/mL)	+++ (MIC ≦ 4 μg/mL)
Cn1cc(NC(=O)c2cc3ccccc3cn2)cc1C(=O)Nc1cc(-c2nc3ccc(OCCN4CCOCC4)cc3[nH]2)n(C)c1 [Compound A-10]	+++ (MIC ≦ 4 μg/mL)	>32 µg/mL	+++ (MIC ≦ 4 μg/mL)	+++ (MIC ≦ 4 μg/mL)	+++ (MIC ≦ 4 μg/mL)	+++ (MIC ≦ 4 μg/mL)	+++ (MIC ≦ 4 μg/mL)
Cn1cc(NC(=O)c2cc(NC(=O)c3ccc(Cl)cc3F)cn2CCCN2CCOCC2)cc1-c1nc2cccnc2[nH]1 [Compound A-40]	+++ (MIC ≦ 4 μg/mL)	>32 µg/mL	+++ (MIC ≦ 4 μg/mL)	+++ (MIC ≦ 4 μg/mL)	+++ (MIC ≦ 4 μg/mL)	+++ (MIC ≦ 4 μg/mL)	+++ (MIC ≦ 4 μg/mL)
Cn1cc(NC(=O)c2cc(NC(=O)c3sc4ccccc4c3Cl)cn2CCCN2CCCCC2)cc1-c1nc2ccccc2[nH]1 [Compound A-23]	+++ (MIC ≦ 4 μg/mL)	+ (12 ≦ MIC ≦ 32 μg/mL)	+++ (MIC ≦ 4 μg/mL)	+++ (MIC ≦ 4 μg/mL)	+++ (MIC ≦ 4 μg/mL)	+++ (MIC ≦ 4 μg/mL)	+++ (MIC ≦ 4 μg/mL)
Cn1cc(NC(=O)c2cc3ccccc3cn2)cc1C(=O)Nc1cc(-c2nc3ccc(N)cc3[nH]2)n(C)c1 [Compound A-8]	++ (4 < MIC < 12 μg/mL)	>32 µg/mL	+++ (MIC ≦ 4 μg/mL)	+++ (MIC ≦ 4 μg/mL)	+++ (MIC ≦ 4 μg/mL)	+++ (MIC ≦ 4 μg/mL)	+++ (MIC ≦ 4 μg/mL)
CN(C)CCCn1cc(NC(=O)c2cc3ccccc3cn2)cc1C(=O)Nc1cc(-c2nc3ccncc3[nH]2)n(C)c1 [Compound A-13]	+++ (MIC ≦ 4 μg/mL)	>32 µg/mL	+++ (MIC ≦ 4 μg/mL)	+++ (MIC ≦ 4 μg/mL)	+++ (MIC ≦ 4 μg/mL)	+++ (MIC ≦ 4 μg/mL)	+++ (MIC ≦ 4 μg/mL)
Cn1cc(NC(=O)c2cc(NC(=O)c3ccc(Cl)cc3F)cn2CCCN2CCC(O)CC2)cc1-c1nc2cccnc2[nH]1 [Compound A-42]	+++ (MIC ≦ 4 μg/mL)	+ (12 ≦ MIC ≦ 32 μg/mL)	+++ (MIC ≦ 4 μg/mL)	+++ (MIC ≦ 4 μg/mL)	+++ (MIC ≦ 4 μg/mL)	+++ (MIC ≦ 4 μg/mL)	+++ (MIC ≦ 4 μg/mL)
CN(C)CCCn1cc(NC(=O)c2cc3ccccc3cn2)cc1C(=O)Nc1cc(-c2nc3ncncc3[nH]2)n(C)c1 [Compound A-15]	+ (12 ≦ MIC ≦ 32 μg/mL)	>32 µg/mL	++ (4 < MIC < 12 μg/mL)	+ (12 ≦ MIC ≦ 32 μg/mL)	+ (12 ≦ MIC ≦ 32 μg/mL)	+ (12 ≦ MIC ≦ 32 μg/mL)	+++ (MIC ≦ 4 μg/mL)
